Here are results for 1 molecule from publication PMC9410914 (2022).

In this assay the test system is WT R-mRNA+30 (I-2S8) (RNA, riboswitch) GGGCAGUGAGCAACAAAAUGCUCACCUGGGUCGCAGUAACCCCAGUUAACAAAACAAGGGAGGUAAUUUUGUGCCCAAAAAAAGAAUAAAAGAUUUAGCU
Description: single-molecule TIRF (SiM-KARB), 30S binding/dissociation rates vs preQ1, global Hill fit. The settings on record: K+ 100 mM, Mg2+ 5 mM, NH4+ 5 mM, Ca2+ 0.5 mM; apparent; Tris-polymix pH 7.5, spermidine, putrescine; 20 nM Cy5-30S ribosomal subunits present; indirect readout.

Molecules are shown by their SMILES.

As for `NCc1c[nH]c2nc(N)[nH]c(=O)c12`, the K1/2 is ~ 48 nM.
